Experimental data: patent US9474790B2, “Stable, protracted GLP-1/glucagon receptor co-agonists for medical use” (Novo Nordisk A/S, priority 2013, dated 2016)
Numbered stars: 1 amine (or outer) side, 2 acyl side, 3 side chain; on linkers, the order of the positions; unused ones are H or OH. Square brackets hold non-standard residues; d marks the D form. Side chains are listed from the residue outwards. Peptide text beside a SMILES is read from it. * marks the point of attachment. C18 diacid = O=C(O)CCCCCCCCCCCCCCCCC(=O)*; γGlu = O=C(O)[C@H](CCC(=O)[*:2])N[*:1]; Ac4c = NC1(C(=O)O)CCC1; AEEA = NCCOCCOCC(=O)O; Aib = CC(C)(N)C(=O)O

Assays:
[1] = Thioflavin T (ThT) fibrillation assay for physical stability; type: physicochemical; settings: 250 μM in 10 mM HEPES buffer, pH 7.5, 37° C., shaking 960 rpm
Outline: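 Fibrillation was followed by ThT (1 μM) fluorescence every 20 min, 444/485 nm, for 250 μM peptide in 10 mM HEPES pH 7.5 shaken at 960 rpm, 37° C. Lag time (t0−2τ) and apparent rate constant (1/τ) come from a sigmoidal fit. Recovery is % of initial concentration remaining soluble after centrifugation and filtration (RP-HPLC).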

[2] = Chemical stability assessment by RP-UPLC; type: physicochemical; settings: 333 μM, 8 mM phosphate buffer pH 7.3, 37° C. vs 5° C.
Outline: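 Purity loss = (purity after 14 days at 5° C. minus that at 37° C.) relative to the 5° C. value, purity being main-peak area % by RP-UPLC with UV at 215 nm. Samples were 333 μM in 8 mM phosphate, pH 7.3; gradient adjusted for outlying retention times.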

Compound | THT assay Lag time (Ex. 76) [1] | Purity loss; 14 days at 37° C. [2]
CC(C)C[C@H](NC(=O)[C@H](Cc1ccc(O)cc1)NC(=O)[C@H](CCCCN)NC(=O)[C@H](CO)NC(=O)[C@H](CC(C)C)NC(=O)[C@H](CC(=O)O)NC(=O)[C@H](CO)NC(=O)[C@@H](NC(=O)[C@H](Cc1ccccc1)NC(=O)[C@@H](NC(=O)CNC(=O)[C@H](CCC(N)=O)NC(=O)C1(NC(=O)[C@@H](N)Cc2c[nH]cn2)CCC1)[C@@H](C)O)[C@@H](C)O)C(=O)N[C@@H](CCC(=O)O)C(=O)N[C@@H](CO)C(=O)N[C@@H](CCCNC(=N)N)C(=O)N[C@@H](CCCNC(=N)N)C(=O)N[C@@H](C)C(=O)N[C@@H](CCC(N)=O)C(=O)N[C@@H](CC(=O)O)C(=O)N[C@@H](Cc1ccccc1)C(=O)N[C@H](C(=O)N[C@@H](CCC(N)=O)C(=O)N[C@@H](Cc1c[nH]c2ccccc12)C(=O)N[C@@H](CC(C)C)C(=O)N[C@@H](CC(C)C)C(=O)N[C@@H](CCCCNC(=O)COCCOCCNC(=O)COCCOCCNC(=O)CC[C@H](NC(=O)CC[C@H](NC(=O)CC[C@H](NC(=O)CCCCCCCCCCCCCCCCC(=O)O)C(=O)O)C(=O)O)C(=O)O)C(=O)N[C@H](C(N)=O)[C@@H](C)O)C(C)C [Example 63, N^ε28-[2-[2-[2-[[2-[2-[2-[[(4S)-4-carboxy-4-[[(4S)-4-carboxy-4-[[(4S)-4-carboxy-4-(17-carboxyheptadecanoylamino)butanoyl]amino]butanoyl]amino]butanoyl]amino]ethoxy]ethoxy]acetyl]amino]ethoxy]ethoxy]acetyl]-[Acb2,Leu10,Glu15,Leu27,Lys28]-Glucagon amide] (H-H[Ac4c]QGTFTSDLSKYLESRRAQDFVQWLLK([AEEA-AEEA-γGlu-γGlu-γGlu-C18 diacid])T-NH2; N-terminus assumed) | 45 h | 1%
CC(C)C[C@H](NC(=O)[C@H](Cc1ccc(O)cc1)NC(=O)[C@H](CCCCN)NC(=O)[C@H](CO)NC(=O)[C@H](CC(C)C)NC(=O)[C@H](CC(=O)O)NC(=O)[C@H](CO)NC(=O)[C@@H](NC(=O)[C@H](Cc1ccccc1)NC(=O)[C@@H](NC(=O)CNC(=O)[C@H](CCC(N)=O)NC(=O)C(C)(C)NC(=O)[C@@H](N)Cc1c[nH]cn1)[C@@H](C)O)[C@@H](C)O)C(=O)N[C@@H](CC(=O)O)C(=O)N[C@@H](C)C(=O)N[C@@H](CCCNC(=N)N)C(=O)N[C@@H](CCCNC(=N)N)C(=O)N[C@@H](C)C(=O)N[C@@H](CCCNC(=N)N)C(=O)N[C@@H](CC(=O)O)C(=O)N[C@@H](Cc1ccccc1)C(=O)N[C@H](C(=O)N[C@@H](CCC(N)=O)C(=O)N[C@@H](Cc1c[nH]c2ccccc12)C(=O)N[C@@H](CC(C)C)C(=O)N[C@@H](CC(C)C)C(=O)N[C@@H](CC(N)=O)C(=O)N[C@@H](CCCCNC(=O)CC[C@H](NC(=O)CC[C@H](NC(=O)COCCOCCNC(=O)COCCOCCNC(=O)CC[C@H](NC(=O)CCCCCCCCCCCCCCCCC(=O)O)C(=O)O)C(=O)O)C(=O)O)C(N)=O)C(C)C [Example 65] (H-H[Aib]QGTFTSDLSKYLDARRARDFVQWLLNK([γGlu-γGlu-AEEA-AEEA-γGlu-C18 diacid])-NH2; N-terminus assumed) | 45 h | 3%
CC(C)C[C@H](NC(=O)[C@H](Cc1ccc(O)cc1)NC(=O)[C@H](CCCCN)NC(=O)[C@H](CO)NC(=O)[C@H](CC(C)C)NC(=O)[C@H](CC(=O)O)NC(=O)[C@H](CO)NC(=O)[C@@H](NC(=O)[C@H](Cc1ccccc1)NC(=O)[C@@H](NC(=O)CNC(=O)[C@H](CCC(N)=O)NC(=O)C(C)(C)NC(=O)[C@@H](N)Cc1c[nH]cn1)[C@@H](C)O)[C@@H](C)O)C(=O)N[C@@H](CC(=O)O)C(=O)N[C@@H](C)C(=O)N[C@@H](CCCNC(=N)N)C(=O)N[C@@H](CCCNC(=N)N)C(=O)N[C@@H](C)C(=O)N[C@@H](CCCNC(=N)N)C(=O)N[C@@H](CC(=O)O)C(=O)N[C@@H](Cc1ccccc1)C(=O)N[C@H](C(=O)N[C@@H](CCC(N)=O)C(=O)N[C@@H](Cc1c[nH]c2ccccc12)C(=O)N[C@@H](CC(C)C)C(=O)N[C@@H](CC(C)C)C(=O)N[C@@H](CO)C(=O)N[C@@H](CCCCNC(=O)CC[C@H](NC(=O)CC[C@H](NC(=O)COCCOCCNC(=O)COCCOCCNC(=O)CC[C@H](NC(=O)CCCCCCCCCCCCCCCCC(=O)O)C(=O)O)C(=O)O)C(=O)O)C(N)=O)C(C)C [Example 66, N^ε29-[(4S)-4-carboxy-4-[[(4S)-4-carboxy-4-[[2-[2-[2-[[2-[2-[2-[[(4S)-4-carboxy-4-(17-carboxyheptadecanoylamino)butanoyl]amino]ethoxy]ethoxy]acetyl]amino]ethoxy]ethoxy]acetyl]amino]butanoyl]amino]butanoyl]-[Aib2,Leu10,Ala16,Arg20,Leu27,Ser28,Lys29]-Glucagon amide] (H-H[Aib]QGTFTSDLSKYLDARRARDFVQWLLSK([γGlu-γGlu-AEEA-AEEA-γGlu-C18 diacid])-NH2; N-terminus assumed) | 45 h | 2%
CC(C)C[C@H](NC(=O)[C@H](Cc1ccc(O)cc1)NC(=O)[C@H](CCCCN)NC(=O)[C@H](CO)NC(=O)[C@H](CC(C)C)NC(=O)[C@H](CC(=O)O)NC(=O)[C@H](CO)NC(=O)[C@@H](NC(=O)[C@H](Cc1ccccc1)NC(=O)[C@@H](NC(=O)CNC(=O)[C@H](CCC(N)=O)NC(=O)C(C)(C)NC(=O)[C@@H](N)Cc1c[nH]cn1)[C@@H](C)O)[C@@H](C)O)C(=O)N[C@@H](CCC(=O)O)C(=O)N[C@@H](CO)C(=O)N[C@@H](CCCNC(=N)N)C(=O)N[C@@H](CCCNC(=N)N)C(=O)N[C@@H](C)C(=O)N[C@@H](CCCNC(=N)N)C(=O)N[C@@H](CCC(=O)O)C(=O)N[C@@H](Cc1ccccc1)C(=O)N[C@H](C(=O)N[C@@H](CCC(N)=O)C(=O)N[C@@H](Cc1c[nH]c2ccccc12)C(=O)N[C@@H](CC(C)C)C(=O)N[C@@H](CC(C)C)C(=O)N[C@@H](CCCCNC(=O)CC[C@H](NC(=O)CC[C@H](NC(=O)[C@H](CO)NC(=O)[C@H](CCC(=O)O)NC(=O)[C@H](CO)NC(=O)CC[C@H](NC(=O)CC[C@H](NC(=O)CCCCCCCCCCCCCCCCC(=O)O)C(=O)O)C(=O)O)C(=O)O)C(=O)O)C(=O)N[C@H](C(N)=O)[C@@H](C)O)C(C)C [Example 67, N^ε28-[(4S)-4-carboxy-4-[[(4S)-4-carboxy-4-[[(2S)-2-[[(2S)-4-carboxy-2-[[(2S)-2-[[(4S)-4-carboxy-4-[[(4S)-4-carboxy-4-(17-carboxyheptadecanoylamino)butanoyl]amino]butanoyl]amino]-3-hydroxypropanoyl]amino]butanoyl]amino]-3-hydroxypropanoyl]amino]butanoyl]amino]butanoyl]-[Aib2,Leu10,Glu15,Arg20,Glu21,Leu27,Lys28]-Glucagon amide] (H-H[Aib]QGTFTSDLSKYLESRRAREFVQWLLK([γGlu-γGlu-Ser-Glu-Ser-γGlu-γGlu-C18 diacid])T-NH2; N-terminus assumed) | 45 h | 4%
